# PMC10204090, “TFBMiner: A User-Friendly Command Line Tool for the Rapid Mining of Transcription Factor-Based Biosensors” (ACS Synthetic Biology, 2023)
# Biological target: T1, P. hospita MdlR (C2L64_43720) (Paraburkholderia hospita, UniProt A0AAN1MPU5)
# T1 construct: gene WQE_50835; full-length LysR-type regulator, gene codon-optimised for E. coli, expressed from Ptrc in E. coli NEB 5-alpha; rfp reporter under P. hospita PmdlC (PC2L64_43715)
# T1 sequence (A0AAN1MPU5 1-297): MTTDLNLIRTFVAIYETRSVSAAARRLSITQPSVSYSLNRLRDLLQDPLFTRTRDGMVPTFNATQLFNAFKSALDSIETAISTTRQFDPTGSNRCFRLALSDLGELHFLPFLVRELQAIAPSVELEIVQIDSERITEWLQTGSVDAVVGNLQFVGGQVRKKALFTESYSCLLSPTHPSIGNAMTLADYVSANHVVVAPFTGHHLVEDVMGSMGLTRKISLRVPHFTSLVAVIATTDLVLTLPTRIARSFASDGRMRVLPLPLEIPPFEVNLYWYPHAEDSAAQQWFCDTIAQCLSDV
# Test: E. coli whole-cell RFP reporter assay, Hill fit
# Type: cell-based
# Conditions: read-out: Km ^a
# Source text: E. coli whole-cell RFP reporter assay, Hill fit on P. hospita MdlR (C2L64_43720)
row,EC50,Structure (SMILES)
1,167 µM,"O=C(O)[C@@H](O)c1ccccc1 [compound 1, S-mandelate]"
2,93 µM,"O=C(O)C(=O)c1ccccc1 [compound 4, phenylglyoxylate]"
